# Results taken from patent US8912329B2 (priority 2009, dated 2014).
# Tests used:
# [1] = molecular target: EthR-VP16 (Mycobacterium bovis, UniProt Q7TVI1); test: cell-based; design: species or system M. bovis; conditions: 48 h, read-out: % EthR activity (w/o = 100%); ± std. dev. of the mean (n = 3)
# [2] = test system: Mycobacterium tuberculosis laboratory strain H37Rv; test: Growth inhibition / drug susceptibility testing of M. tuberculosis with MGIT 960 system, compounds combined with ethionamide; type: cell-based; design: key to growth inhibition of M. tuberculosis H37Rv (R/I/S): R: Resistance, no effect of combinatorial drug application; I: intermediate; S: sensitive; conditions: for growth inhibitory effect of compound alone on M. tuberculosis H37Rv: without ethionamide; for growth of M. tuberculosis H37Rv in the presence of sub-inhibitory ethionamide concentrations: ethionamide 0.16 and 5 μg/ml, 0.5 to 40.5 μMol compound
# [3] = Example compound 0.5 μM + ethionamide 0.16 μg/ml
# [4] = Example compound 0.5 μM + ethionamide 0.31 μg/ml
# [5] = Example compound 0.5 μM + ethionamide 0.625 μg/ml
# [6] = Example compound 0.5 μM + ethionamide 1.25 μg/ml
# [7] = Example compound 0.5 μM + ethionamide 2.5 μg/ml
# [8] = Example compound 0.5 μM + ethionamide 5 μg/ml
# [9] = Example compound 0.5 μM, ethionamide 0 μg/ml
# [10] = Example compound 1.5 μM + ethionamide 0.16 μg/ml
# [11] = Example compound 1.5 μM + ethionamide 0.31 μg/ml
# [12] = Example compound 1.5 μM + ethionamide 0.625 μg/ml
# [13] = Example compound 1.5 μM + ethionamide 1.25 μg/ml
# [14] = Example compound 1.5 μM + ethionamide 2.5 μg/ml
# [15] = Example compound 1.5 μM + ethionamide 5 μg/ml
# [16] = Example compound 1.5 μM, ethionamide 0 μg/ml
# [17] = Example compound 4.5 μM + ethionamide 0.16 μg/ml
# [18] = Example compound 4.5 μM + ethionamide 0.31 μg/ml
# [19] = Example compound 4.5 μM + ethionamide 0.625 μg/ml
# [20] = Example compound 4.5 μM + ethionamide 1.25 μg/ml
# [21] = Example compound 4.5 μM + ethionamide 2.5 μg/ml
# [22] = Example compound 4.5 μM + ethionamide 5 μg/ml
# [23] = Example compound 4.5 μM, ethionamide 0 μg/ml
# [24] = Example compound 13.5 μM + ethionamide 0.16 μg/ml
# [25] = Example compound 13.5 μM + ethionamide 0.31 μg/ml
# [26] = Example compound 13.5 μM + ethionamide 0.625 μg/ml
# [27] = Example compound 13.5 μM + ethionamide 1.25 μg/ml
# [28] = Example compound 13.5 μM + ethionamide 2.5 μg/ml
# [29] = Example compound 13.5 μM + ethionamide 5 μg/ml
# [30] = Example compound 13.5 μM, ethionamide 0 μg/ml
# [31] = Example compound 40.5 μM + ethionamide 0.16 μg/ml
# [32] = Example compound 40.5 μM + ethionamide 0.31 μg/ml
# [33] = Example compound 40.5 μM + ethionamide 0.625 μg/ml
# [34] = Example compound 40.5 μM + ethionamide 1.25 μg/ml
# [35] = Example compound 40.5 μM + ethionamide 2.5 μg/ml
# [36] = Example compound 40.5 μM + ethionamide 5 μg/ml
# [37] = Example compound 40.5 μM, ethionamide 0 μg/ml
# Sequence of EthR-VP16 (Q7TVI1 whole entry, looked up): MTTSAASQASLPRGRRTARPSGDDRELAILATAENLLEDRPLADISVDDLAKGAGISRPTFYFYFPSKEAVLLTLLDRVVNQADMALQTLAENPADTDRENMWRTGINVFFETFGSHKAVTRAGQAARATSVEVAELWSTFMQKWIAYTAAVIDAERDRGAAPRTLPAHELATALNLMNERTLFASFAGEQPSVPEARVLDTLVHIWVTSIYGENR
smiles,measurement,setting,value
"O=C(CCc1ccccc1)N1CCC(c2ccccc2)C1 (stereo not drawn) [Example 16, 3-Phenyl-1-(3-phenylpyrrolidin-1-yl)propan-1-one]",remaining activity at 0.5 µM,[1],28.3 ± 1.26%
same,remaining activity at 1.5 µM,[1],27.2 ± 0.46%
same,remaining activity at 3 µM,[1],19.9 ± 0.43%
same,remaining activity at 6 µM,[1],13.5 ± 2.96%
same,remaining activity at 15 µM,[1],11.8 ± 2.6%
same,remaining activity at 30 µM,[1],11.4 ± 2.51%
same,remaining activity at 60 µM,[1],2.82 ± 0.62%
same,remaining activity at 300 µM,[1],0.85 ± 0.18%
same,growth inhibition of M. tuberculosis H37Rv (R/I/S),[2]; [3],R
same,growth inhibition of M. tuberculosis H37Rv (R/I/S),[2]; [4],R
same,growth inhibition of M. tuberculosis H37Rv (R/I/S),[2]; [5],I
same,growth inhibition of M. tuberculosis H37Rv (R/I/S),[2]; [6],S
same,growth inhibition of M. tuberculosis H37Rv (R/I/S),[2]; [7],S
same,growth inhibition of M. tuberculosis H37Rv (R/I/S),[2]; [8],S
same,growth inhibition of M. tuberculosis H37Rv (R/I/S),[2]; [9],R
same,growth inhibition of M. tuberculosis H37Rv (R/I/S),[2]; [10],R
same,growth inhibition of M. tuberculosis H37Rv (R/I/S),[2]; [11],I
same,growth inhibition of M. tuberculosis H37Rv (R/I/S),[2]; [12],S
same,growth inhibition of M. tuberculosis H37Rv (R/I/S),[2]; [13],S
same,growth inhibition of M. tuberculosis H37Rv (R/I/S),[2]; [14],S
same,growth inhibition of M. tuberculosis H37Rv (R/I/S),[2]; [15],S
same,growth inhibition of M. tuberculosis H37Rv (R/I/S),[2]; [16],R
same,growth inhibition of M. tuberculosis H37Rv (R/I/S),[2]; [17],R
same,growth inhibition of M. tuberculosis H37Rv (R/I/S),[2]; [18],I
same,growth inhibition of M. tuberculosis H37Rv (R/I/S),[2]; [19],S
same,growth inhibition of M. tuberculosis H37Rv (R/I/S),[2]; [20],S
same,growth inhibition of M. tuberculosis H37Rv (R/I/S),[2]; [21],S
same,growth inhibition of M. tuberculosis H37Rv (R/I/S),[2]; [22],S
same,growth inhibition of M. tuberculosis H37Rv (R/I/S),[2]; [23],R
same,growth inhibition of M. tuberculosis H37Rv (R/I/S),[2]; [24],I
same,growth inhibition of M. tuberculosis H37Rv (R/I/S),[2]; [25],S
same,growth inhibition of M. tuberculosis H37Rv (R/I/S),[2]; [26],S
same,growth inhibition of M. tuberculosis H37Rv (R/I/S),[2]; [27],S
same,growth inhibition of M. tuberculosis H37Rv (R/I/S),[2]; [28],S
same,growth inhibition of M. tuberculosis H37Rv (R/I/S),[2]; [29],S
same,growth inhibition of M. tuberculosis H37Rv (R/I/S),[2]; [30],R
same,growth inhibition of M. tuberculosis H37Rv (R/I/S),[2]; [31],I
same,growth inhibition of M. tuberculosis H37Rv (R/I/S),[2]; [32],I
same,growth inhibition of M. tuberculosis H37Rv (R/I/S),[2]; [33],S
same,growth inhibition of M. tuberculosis H37Rv (R/I/S),[2]; [34],S
same,growth inhibition of M. tuberculosis H37Rv (R/I/S),[2]; [35],S
same,growth inhibition of M. tuberculosis H37Rv (R/I/S),[2]; [36],S
same,growth inhibition of M. tuberculosis H37Rv (R/I/S),[2]; [37],R
same,growth inhibitory effect of compound alone on M. tuberculosis H37Rv,[2],do not show any growth inhibitory effect
same,growth of M. tuberculosis H37Rv in the presence of sub-inhibitory ethionamide concentrations,[2],dose-dependently inhibited
"O=C(COc1ccc(F)cc1)N1CCC(c2ccccc2)C1 (stereo not drawn) [Example 15, 2-(4-Fluorophenoxy)-1-(3-phenylpyrrolidin-1-yl)ethan-1-one]",remaining activity at 0.5 µM,[1],10.3 ± 1.26%
same,remaining activity at 1.5 µM,[1],10.3 ± 0.43%
same,remaining activity at 3 µM,[1],7.81 ± 0.95%
same,remaining activity at 6 µM,[1],6.01 ± 1.93%
same,remaining activity at 15 µM,[1],3.21 ± 1.35%
same,remaining activity at 30 µM,[1],0.77 ± 0.32%
same,remaining activity at 60 µM,[1],0.86 ± 0.36%
same,remaining activity at 300 µM,[1],0.89 ± 0.37%
same,growth inhibition of M. tuberculosis H37Rv (R/I/S),[2]; [3],R
same,growth inhibition of M. tuberculosis H37Rv (R/I/S),[2]; [4],R
same,growth inhibition of M. tuberculosis H37Rv (R/I/S),[2]; [5],I
same,growth inhibition of M. tuberculosis H37Rv (R/I/S),[2]; [6],S
same,growth inhibition of M. tuberculosis H37Rv (R/I/S),[2]; [7],S
same,growth inhibition of M. tuberculosis H37Rv (R/I/S),[2]; [8],S
same,growth inhibition of M. tuberculosis H37Rv (R/I/S),[2]; [9],R
same,growth inhibition of M. tuberculosis H37Rv (R/I/S),[2]; [10],R
same,growth inhibition of M. tuberculosis H37Rv (R/I/S),[2]; [11],I
same,growth inhibition of M. tuberculosis H37Rv (R/I/S),[2]; [12],I
same,growth inhibition of M. tuberculosis H37Rv (R/I/S),[2]; [13],S
same,growth inhibition of M. tuberculosis H37Rv (R/I/S),[2]; [14],S
same,growth inhibition of M. tuberculosis H37Rv (R/I/S),[2]; [15],S
same,growth inhibition of M. tuberculosis H37Rv (R/I/S),[2]; [16],R
same,growth inhibition of M. tuberculosis H37Rv (R/I/S),[2]; [17],R
same,growth inhibition of M. tuberculosis H37Rv (R/I/S),[2]; [18],I
same,growth inhibition of M. tuberculosis H37Rv (R/I/S),[2]; [19],S
same,growth inhibition of M. tuberculosis H37Rv (R/I/S),[2]; [20],S
same,growth inhibition of M. tuberculosis H37Rv (R/I/S),[2]; [21],S
same,growth inhibition of M. tuberculosis H37Rv (R/I/S),[2]; [22],S
same,growth inhibition of M. tuberculosis H37Rv (R/I/S),[2]; [23],R
same,growth inhibition of M. tuberculosis H37Rv (R/I/S),[2]; [24],R
same,growth inhibition of M. tuberculosis H37Rv (R/I/S),[2]; [25],I
same,growth inhibition of M. tuberculosis H37Rv (R/I/S),[2]; [26],S
same,growth inhibition of M. tuberculosis H37Rv (R/I/S),[2]; [27],S
same,growth inhibition of M. tuberculosis H37Rv (R/I/S),[2]; [28],S
same,growth inhibition of M. tuberculosis H37Rv (R/I/S),[2]; [29],S
same,growth inhibition of M. tuberculosis H37Rv (R/I/S),[2]; [30],R
same,growth inhibition of M. tuberculosis H37Rv (R/I/S),[2]; [31],R
same,growth inhibition of M. tuberculosis H37Rv (R/I/S),[2]; [32],I
same,growth inhibition of M. tuberculosis H37Rv (R/I/S),[2]; [33],S
same,growth inhibition of M. tuberculosis H37Rv (R/I/S),[2]; [34],S
same,growth inhibition of M. tuberculosis H37Rv (R/I/S),[2]; [35],S
same,growth inhibition of M. tuberculosis H37Rv (R/I/S),[2]; [36],S
same,growth inhibition of M. tuberculosis H37Rv (R/I/S),[2]; [37],R
same,growth inhibitory effect of compound alone on M. tuberculosis H37Rv,[2],do not show any growth inhibitory effect
same,growth of M. tuberculosis H37Rv in the presence of sub-inhibitory ethionamide concentrations,[2],dose-dependently inhibited
